US20250353825A1, “CANNABICYCLOL DERIVATIVES AND PREPARATION METHODS THEREOF” (priority 2023, published 2025)
Values after ≈ are worked out from the molar mass of the structure shown.

How the values were obtained:
Format in all cases: cell-based
GSC-12diff = experiment: MTS cell viability assay, differentiated glioblastoma stem cells GSC-12diff; settings: Table 7, 72 hours, read-out: IC50 against GSC-12diff
Procedure: (§1) Primary viability screening: (1) the synthesized compounds 3a to 13d were respectively dissolved in DMSO to prepare a 40 μg/mL cannabicyclol and cannabicyclol derivative solutions.
(§2) (2) A control group: a 200 μL DMSO solvent.
(§3) (3) The solutions of compounds 3a to 13d were diluted in a twofold gradient to obtain cannabicyclol and cannabicyclol derivative solutions at concentrations of 40 μg/mL, 20 μg/mL, 10 μg/mL, 5 μg/mL, 2.5 μg/mL, 1.25 μg/mL, and 0.625 μg/mL, and 0.3125 μg/mL, respectively.
(§4) (4) Three glioblastoma stem cells (GSC-3, GSC-12, and GSC-18), three pancreatic cancer cell-derived stem cells (PANC-1-CSC, BXPC-3-CSC, and ASPC1-CSC), three liver cancer cell-derived stem cells (HepG2-CSC, MHCC97H-CSC, and SMMC7721-CSC), HEK-293T cells, 16 tumor cells (U251, U87, T98G, PANC1, BXPC3, ASPC1, HepG2, MHCC97H, SMMC7721, PC3, SKOV3, MDA-MB231, A549, HCT116, HEC-1B, MKN28), and differentiated glioblastoma stem cells (GSC-3diff and GSC-12diff) derived from GSC-3 and GSC-12 (all of the cells were provided by the Laboratory of Tumor Animal Model Preparation and Application Research, West China Hospital, Sichuan University) were inoculated into a 96-well plate at a concentration of 2×10^4 cells/well, and 100 μL of culture medium was then added to each well; […]
(§5) (10) The absorbance value at 490 nm was measured on an enzyme labeling apparatus, and the IC50 value was calculated.

MDA-MB231 = experiment: MTS cell viability assay, MDA-MB231; settings: Homo sapiens, MDA-MB-231; Table 7, 72 hours; read-out: IC50 against MDA-MB231
Procedure: as §1, §2, §3, §4, §5

HCT116 = experiment: MTS cell viability assay, HCT116; settings: Homo sapiens, HCT-116; Table 7, 72 hours; read-out: IC50 against HCT116
Procedure: as §1, §2, §3, §4, §5

BXPC3-CSC = experiment: MTS cell viability assay, BXPC3-CSC; settings: Table 6, tumor stem cell, 72 hours; read-out: IC50 against BXPC3-CSC
Procedure: as §1, §2, §3, §4, §5

SMMC7721 = experiment: MTS cell viability assay, SMMC7721; settings: Homo sapiens, SMMC-7721; Table 7, 72 hours; read-out: IC50 against SMMC7721
Procedure: as §1, §2, §3, §4, §5

GSC-12 [1] = experiment: MTS cell viability assay, GSC-12; settings: GSC12; Table 6, tumor stem cell, 72 hours; read-out: IC50 against GSC-12
Procedure: as §1, §2, §3, §4, §5

[2] = tested on: glioblastoma cell line U251; experiment: Soft agar colony (clone) formation, U251; settings: crystal violet, FIG. 4, compound 3a 0, 5 and 5 [sic] μg/mL
Procedure: (§6) […] of low-melting-point agarose was dissolved in 12.5 mL of ddH2O to prepare a 3.2% low-melting-point agarose gel. The low-melting-point agarose gel was sterilized by autoclaving at 121° C. and 0.12 MPa for 20 minutes. After sterilization, the low-melting-point agarose gel was maintained at 60° C. in a drying oven for further use.
(§7) 1.75 mL of 3.2% sterile low-melting-point agarose gel was taken, 5.25 mL of the corresponding complete medium was added, and the two were mixed thoroughly using a pipette to prepare a base gel at a concentration of 0.8%.
(§8) 1 mL of the base gel was added to each well of a 6-well plate, ensuring that the base gel evenly covered the bottom of each well. The plate was placed at 4° C. for 5 minutes to allow the gel to solidify. After the gel had fully solidified, the plate was warmed at 37° C. for 5 minutes.
(§9) 6 cells/cell lines (U251, SMMC7721, GSC-3, GSC-12, SMMC7721-CSC, and HepG2-CSC) were individually digested with 1× trypsin for 3 minutes. The corresponding complete culture medium (same as in the application example 1) was added to terminate the digestion. Cells were centrifuged at 1000 rpm for 3 minutes, and the cells were collected and counted. A total of 5×10^3 cells were added to each well, each group was set up with three replicates. […]

T98G = experiment: MTS cell viability assay, T98G; settings: Homo sapiens, Table 7, 72 hours, read-out: IC50 against T98G
Procedure: as §1, §2, §3, §4, §5

GSC-12 [3] = experiment: Soft agar colony (clone) formation, GSC-12; settings: crystal violet, FIG. 4, compound 3a 0, 5 and 5 [sic] μg/mL
Procedure: as §6, §7, §8, §9

HepG2 = experiment: MTS cell viability assay, HepG2; settings: Homo sapiens, Table 7, 72 hours, read-out: IC50 against HepG2
Procedure: as §1, §2, §3, §4, §5

## CCCCCc1cc(O)c2c(c1)OC1(C)CCC3C1C2C3(C)C (stereo not shown) [Compound 3a, cannabicyclol]
GSC-12diff
  IC50: 29.6 µg/mL (≈ 94.3 µM)
MDA-MB231
  IC50: > 40 µg/mL
HCT116
  IC50: > 40 µg/mL
BXPC3-CSC
  IC50: 2.19 µg/mL (≈ 6.96 µM)
SMMC7721
  IC50: > 40 µg/mL
GSC-12 [1]
  IC50: 8.03 µg/mL (≈ 25.5 µM)
[2]
  colony formation of U251: significantly inhibited
T98G
  IC50: > 40 µg/mL
GSC-12 [3]
  colony formation of GSC-12: significantly inhibited
HepG2
  IC50: > 40 µg/mL
